# Values quoted from earlier work as cited in US20200179539A1, “Contrast Agents and Methods of Making the Same for Spectral CT That Exhibit Cloaking and Auto-Segmentation” (BOARD OF REGENTS, THE UNIVERSITY OF TEXAS SYSTEM, priority 2017, published 2020).
# System: rat
# Conditions: rat oral
structure (smiles),measurement,value
[Na+].[Na+].[O]=[W](=[O])([O-])[O-] [sodium tungstate],LD50,"1,190 mg/Kg"
